Data published in patent publication US9982260B2, “Identification of structurally similar small molecules that enhance therapeutic exon skipping” (The Regents of the University of California, priority 2013, dated 2018).
Where a name gives a salt, the structure may show the parent alone.

Test system: human exon-50 DMD GFP reporter (ex50GFP)
Assay: High-throughput screen in the Ex50GFP reporter cell line (C2C12 myoblasts, Prestwick library)
Settings: for Z Score, ratio of +AO/C ('Compound + AO' compared to 'Compound only') / Z Score, 'Compound only' screen: 10 μM compound; for Z Score, ratio of +AO/C ('Compound + AO' compared to 'Compound only'): +AO fluorescence divided by 2.52 and by 'Compound only' fluorescence; for Z Score, 'Compound + AO' screen: 10 μM compound after 300 nM h50AON; for Z Score, 'Compound + AO' screen / Z Score, 'Compound only' screen: GFP fluorescence after 48 h vs DMSO controls; for Z Score, 'Compound only' screen: no AO

Row | Structure (SMILES) | Z Score, ratio of +AO/C ('Compound + AO' compared to 'Compound only') | Z Score, 'Compound + AO' screen | Z Score, 'Compound only' screen
1 | CC(=O)OCC(=O)[C@@]1(O)CC[C@H]2[C@@H]3CCC4=CC(=O)C=C[C@]4(C)[C@@]3(F)[C@@H](O)C[C@@]21C [Isoflupredone acetate] | 3.59 | – | –
2 | Clc1ccc(Cn2c(CN3CCCC3)nc3ccccc32)cc1 [Clemizole hydrochloride] | 4.49 | 3.46 | –
3 | CCN(CC)C(=O)N[C@H]1C[C@@H]2c3cccc4[nH]cc(c34)C[C@H]2N(C)C1 [S(+)-Terguride] | – | 4.08 | 5.92
4 | CC(NCCC(c1ccccc1)c1ccccc1)c1ccccc1 (stereo not drawn) [Fendiline hydrochloride] | – | – | 7.39
5 | CCc1nc(N)nc(N)c1-c1ccc(Cl)cc1 [Pyrimethamine] | – | – | 7.44
6 | Clc1ccc(COC(Cn2ccnc2)c2ccc(Cl)cc2Cl)cc1 (stereo not drawn) [Econazole nitrate] | – | 3.38 | –
7 | COc1ccc2c3c([nH]c2c1)C(C)=NCC3.Cl.O.O [Harmaline hydrochloride dihydrate] | – | 5.58 | 5.78
8 | CCN(CC)CCNC(=O)c1cc(Cl)c(N)cc1OC [Metoclopramide monohydrochloride] | 3.06 | – | –
9 | COC(=O)C1=CO[C@@H](C)[C@H]2CN3CCc4c([nH]c5ccccc45)[C@@H]3C[C@H]12.Cl [Ajmalicine hydrochloride] | – | 4.20 | 6.17
10 | CC1CCc2cc(F)cc3c(=O)c(C(=O)O)cn1c23 (stereo not drawn) [Flumequine] | 2.75 | – | –
11 | COc1cc(-c2ccc(=O)[nH]n2)ccc1OC(F)F [Zardaverine] | – | 3.69 | –
12 | O=C(Nc1ccc([N+](=O)[O-])cc1Cl)c1cc(Cl)ccc1O [Niclosamide] | – | 3.37 | 9.59
13 | c1ccc(C2CN3CCSC3=N2)cc1 (stereo not drawn) [Tetramisole hydrochloride] | 2.77 | – | –
14 | CN(C(=O)CN(CCO)CC(=O)N(C)C(C)(C)Cc1ccccc1)C(C)(C)Cc1ccccc1 [Oxethazaine] | – | 4.98 | –
15 | C[C@@H](O)[C@H]1C(=O)N2C(C(=O)O)=C(S[C@@H]3CN[C@H](C(=O)N(C)C)C3)[C@H](C)[C@H]12 [Meropenem] | – | 3.56 | –
16 | COc1ccc2[nH]c3c(c2c1)CCN=C3C [Methoxy-6-harmalan] | – | 3.90 | 7.98
17 | CNc1ncnc2c1ncn2[C@@H]1O[C@H](CO)[C@@H](O)[C@H]1O [N6-methyladenosine] | 3.70 | – | –
18 | O=C(O)c1cc(/N=N/c2ccc(S(=O)(=O)Nc3ccccn3)cc2)ccc1O [Sulfasalazine] | 3.04 | – | –
19 | COc1cccc2c1C(=O)c1c(O)c3c(c(O)c1C2=O)C[C@@](O)(C(C)=O)C[C@@H]3O[C@H]1C[C@H](N)[C@H](O)[C@H](C)O1 [Daunorubicin hydrochloride] | – | – | 5.14
20 | OC(c1cc(C(F)(F)F)nc2c(C(F)(F)F)cccc12)C1CCCCN1 (stereo not drawn) [Mefloquine hydrochloride] | – | – | 5.92
21 | COc1ccc2c3c([nH]c2c1)[C@H]1C[C@H]2[C@H](C[C@@H](O)[C@H](OC)[C@H]2C(=O)O)CN1CC3.Cl [Reserpinic acid hydrochloride] | – | 4.86 | –
22 | Nc1nc(O)c2[nH]nnc2n1 [Azaguanine-8] | – | – | 7.64

Row | Structure (SMILES) | Z Score, ratio of +AO/C ('Compound + AO' compared to 'Compound only') | Z Score, 'Compound + AO' screen | Z Score, 'Compound only' screen
23 | Clc1ccccc1C(c1ccccc1)(c1ccccc1)n1ccnc1 [Clotrimazole] | – | – | 6.50
24 | COC(=O)[C@H]1[C@H]2C[C@@H]3c4[nH]c5cc(OC)ccc5c4CCN3C[C@H]2C[C@@H](OC(=O)c2cc(OC)c(OC)c(OC)c2)[C@@H]1OC [Reserpine] | – | 3.66 | 5.63
25 | O=C(O)CCC(=O)Nc1ccc(S(=O)(=O)Nc2nccs2)cc1 [Succinylsulfathiazole] | 3.38 | – | –
26 | COC(=O)C1=CO[C@@H](C)[C@@H]2CN3CCc4c([nH]c5ccccc45)[C@@H]3C[C@H]12 [Tetrahydroalstonine] | – | 6.56 | 6.47
27 | OCCN1CCN(CCCN2c3ccccc3Sc3ccc(C(F)(F)F)cc32)CC1 [Fluphenazine dihydrochloride] | 4.05 | – | –
28 | CN1CCc2cccc3c2[C@H]1Cc1ccc(O)c(O)c1-3 [Apomorphine hydrochloride hemihydrate] | – | – | 14.87
29 | CC(C)(Sc1cc(C(C)(C)C)c(O)c(C(C)(C)C)c1)Sc1cc(C(C)(C)C)c(O)c(C(C)(C)C)c1 [Probucol] | 3.92 | – | –
30 | CCCSc1ccc2nc(NC(=O)OC)[nH]c2c1 [Albendazole] | – | – | 7.00
31 | Cc1c(C)c2c(c(C)c1O)CC[C@@](C)(CCC[C@H](C)CCC[C@H](C)CCCC(C)C)O2 [Tocopherol (R,S)] | 2.67 | – | –
32 | COC(=O)Nc1nc2ccc(Sc3ccccc3)cc2[nH]1 [Fenbendazole] | – | 4.83 | 6.56
33 | CCN(CC)CCNC(=O)c1ccc(N)cc1 [Procainamide hydrochloride] | 2.67 | – | –
34 | NC(=O)c1cc[n+](CC2=C(C(=O)[O-])N3C(=O)[C@@H](NC(=O)Cc4cccs4)[C@H]3SC2)cc1 [Cefalonium] | 2.97 | – | –
35 | CCCOc1cc(N)ccc1C(=O)OCCN(CC)CC [Propoxycaine hydrochloride] | 3.05 | – | –
36 | CCN(CC)CCCC(C)Nc1c2ccc(Cl)cc2nc2ccc(OC)cc12 (stereo not drawn) [Quinacrine dihydrochloride dihydrate] | – | 12.60 | 19.06
37 | COC(=O)Nc1nc2ccc(C(=O)c3ccccc3)cc2[nH]1 [Mebendazole] | – | 3.43 | –
38 | C[C@](N)(Cc1ccc(O)c(O)c1)C(=O)O [Methyldopa (L,-)] | 2.84 | – | –
39 | Cc1c2ccncc2c(C)c2c1[nH]c1ccccc12 [Ellipticine] | – | 5.17 | 6.97
40 | Cc1nccn1CC1CCc2c(c3ccccc3n2C)C1=O (stereo not drawn) [Ondansetron Hydrochloride] | 3.25 | – | –
41 | Cc1ccc(N(CC2=NCCN2)c2cccc(O)c2)cc1 [Phentolamine hydrochloride] | 2.63 | – | –
42 | CC[N+]1(C)CCCC(OC(=O)C(O)(c2ccccc2)c2ccccc2)C1 (stereo not drawn) [Pipenzolate bromide] | 2.74 | – | –
43 | CC[C@H]1CN2CC[C@H]1C[C@H]2[C@H](O)c1ccnc2ccc(OC)cc12 [Hydroquinine hydrobromide hydrate] | 2.82 | – | –
